According to ChEMBL document CHEMBL3352414, “Structure based inhibitor design targeting glycogen phosphorylase B. Virtual screening, synthesis, biochemical and biological assessment of novel N-acyl-β-d-glucopyranosylamines” (Bioorg Med Chem, 2014):

Legend:
[1] = target: T1, Glycogen phosphorylase, muscle form (Oryctolagus cuniculus, UniProt P00489); test: Inhibition of rabbit skeletal muscle glycogen phosphorylase b assessed as inorganic phosphate release
T1 sequence (P00489 whole entry): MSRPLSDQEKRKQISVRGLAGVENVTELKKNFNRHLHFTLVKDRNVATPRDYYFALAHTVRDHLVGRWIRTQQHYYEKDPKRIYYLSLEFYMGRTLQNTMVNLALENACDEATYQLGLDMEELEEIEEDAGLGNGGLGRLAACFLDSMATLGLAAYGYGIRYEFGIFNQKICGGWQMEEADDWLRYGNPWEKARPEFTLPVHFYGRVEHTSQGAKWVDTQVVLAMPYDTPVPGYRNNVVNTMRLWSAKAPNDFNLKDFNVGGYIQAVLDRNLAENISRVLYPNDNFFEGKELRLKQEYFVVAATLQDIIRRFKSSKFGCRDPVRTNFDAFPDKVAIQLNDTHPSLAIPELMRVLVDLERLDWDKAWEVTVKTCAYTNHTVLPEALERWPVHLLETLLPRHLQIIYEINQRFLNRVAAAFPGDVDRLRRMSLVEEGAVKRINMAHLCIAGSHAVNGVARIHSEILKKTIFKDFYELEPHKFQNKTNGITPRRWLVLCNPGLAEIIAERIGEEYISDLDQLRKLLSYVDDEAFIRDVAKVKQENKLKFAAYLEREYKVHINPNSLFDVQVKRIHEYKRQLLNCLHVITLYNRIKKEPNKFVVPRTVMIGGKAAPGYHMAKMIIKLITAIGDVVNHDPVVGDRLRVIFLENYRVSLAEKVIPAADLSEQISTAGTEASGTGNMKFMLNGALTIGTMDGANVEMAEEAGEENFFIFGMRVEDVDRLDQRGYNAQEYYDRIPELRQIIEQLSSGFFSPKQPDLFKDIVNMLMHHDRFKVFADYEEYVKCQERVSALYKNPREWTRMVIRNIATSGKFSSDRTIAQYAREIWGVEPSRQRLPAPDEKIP

[2] = Octanol water partition coefficient, logP of the compound; format: physicochemical
[3] = Permeability in human Caco2 cells; format: ADME, cell-based; details: Caco-2, read-out: permeability

| SMILES | Ki ([1]; read-out: Ki) [µM] | logP [2] | Papp [3] [×10⁻⁶ cm/s] | Ki [1] |
| --- | --- | --- | --- | --- |
| O=C(Cc1ccccc1)NC(=O)N[C@@H]1O[C@H](CO)[C@@H](O)[C@H](O)[C@H]1O | 600 |  |  |  |
| O=C(Nc1cccc2ccccc12)C(=O)N[C@@H]1O[C@H](CO)[C@@H](O)[C@H](O)[C@H]1O | 144 |  |  |  |
| O=C(Nc1ccc2ccccc2c1)N[C@@H]1O[C@H](CO)[C@@H](O)[C@H](O)[C@H]1O | 5.2 |  |  |  |
| CCc1ccc(/C=C/C(=O)N[C@@H]2O[C@H](CO)[C@@H](O)[C@H](O)[C@H]2O)cc1 |  | 0.04 | 9.47 |  |
| COC(=O)c1ccc(C(=O)N[C@@H]2O[C@H](CO)[C@@H](O)[C@H](O)[C@H]2O)cc1 | 329 |  |  |  |
| CC(C)c1ccc([C@@H](C)CC(=O)N[C@@H]2O[C@H](CO)[C@@H](O)[C@H](O)[C@H]2O)cc1 |  | 0.075 | 7.87 |  |
| O=C(Nc1ccc2ccccc2c1)C(=O)N[C@@H]1O[C@H](CO)[C@@H](O)[C@H](O)[C@H]1O | 56 |  |  |  |
| O=C(Nc1ccccn1)C(=O)N[C@@H]1O[C@H](CO)[C@@H](O)[C@H](O)[C@H]1O | 230 |  |  |  |
| O=C(/C=C/c1ccc2ccccc2c1)N[C@@H]1O[C@H](CO)[C@@H](O)[C@H](O)[C@H]1O | 3.5 |  |  |  |
| O=C(N[C@@H]1O[C@H](CO)[C@@H](O)[C@H](O)[C@H]1O)C1CCCCC1 | 289 |  |  |  |
| COc1ccc(/C=C/C(=O)N[C@@H]2O[C@H](CO)[C@@H](O)[C@H](O)[C@H]2O)c(O)c1 |  | -0.958 | 3.89 |  |
| O=C1Cc2ccc(Cl)cc2C=C1C(=O)N[C@@H]1O[C@H](CO)[C@@H](O)[C@H](O)[C@H]1O |  | -0.221 | 3.85 |  |
| COc1cc(/C=C/C(=O)N[C@@H]2O[C@H](CO)[C@@H](O)[C@H](O)[C@H]2O)cc(OC)c1 |  | -0.36 | 8 |  |
| O=C(C#Cc1ccccc1)N[C@@H]1O[C@H](CO)[C@@H](O)[C@H](O)[C@H]1O | 61 |  |  |  |
| N[C@H](Cc1c[nH]c2ccccc12)C(=O)N[C@@H]1O[C@H](CO)[C@@H](O)[C@H](O)[C@H]1O |  | -2.09 | 0.47 |  |
| CC(C)(Oc1ccc2ccccc2c1)C(=O)N[C@@H]1O[C@H](CO)[C@@H](O)[C@H](O)[C@H]1O |  | 0.037 | 10.6 |  |
| O=C(/C=C/c1ccccc1)N[C@@H]1O[C@H](CO)[C@@H](O)[C@H](O)[C@H]1O | 18 |  |  |  |
| O=C(NC(=O)c1ccc(C(F)(F)F)cc1)N[C@@H]1O[C@H](CO)[C@@H](O)[C@H](O)[C@H]1O | 1.8 |  |  |  |
| C[C@@H]1C[C@@]1(C(=O)N[C@@H]1O[C@H](CO)[C@@H](O)[C@H](O)[C@H]1O)c1cccc2ccccc12 |  | 0.255 | 14.5 |  |
| CC(C)(C)c1ccc(/C=C/C(=O)N[C@@H]2O[C@H](CO)[C@@H](O)[C@H](O)[C@H]2O)cc1 |  | 0.496 | 8.77 |  |

| SMILES | Ki ([1]; read-out: Ki) [µM] | logP [2] | Papp [3] [×10⁻⁶ cm/s] | Ki [1] |
| --- | --- | --- | --- | --- |
| O=C(N[C@@H]1O[C@H](CO)[C@@H](O)[C@H](O)[C@H]1O)C(F)(F)F | 81 |  |  |  |
| O=C(C[C@H](c1ccc(Cl)cc1)C1CC1)N[C@@H]1O[C@H](CO)[C@@H](O)[C@H](O)[C@H]1O |  | 0.083 | 6.97 |  |
| O=C(Nc1ccccc1)C(=O)N[C@@H]1O[C@H](CO)[C@@H](O)[C@H](O)[C@H]1O | 100 |  |  |  |
| Cc1ccc(-c2cnc(CCC(=O)N[C@@H]3O[C@H](CO)[C@@H](O)[C@H](O)[C@H]3O)o2)cc1 |  | -0.574 | 5.4 |  |
| O=C(N[C@@H]1O[C@H](CO)[C@@H](O)[C@H](O)[C@H]1O)C1=Cc2cc(Cl)ccc2OC1 |  | -0.169 | 9.4 |  |
| O=C(NC(=O)c1ccccn1)N[C@@H]1O[C@H](CO)[C@@H](O)[C@H](O)[C@H]1O | 68 |  |  |  |
| O=C(N[C@@H]1O[C@H](CO)[C@@H](O)[C@H](O)[C@H]1O)[C@H](O)[C@@H](O)[C@@H](O)[C@H](O)CO | 225 |  |  |  |
| CCOC(=O)C(=O)N[C@@H]1O[C@H](CO)[C@@H](O)[C@H](O)[C@H]1O | 920 |  |  |  |
| O=C(CCNC(=O)c1ccc(F)c(F)c1)N[C@@H]1O[C@H](CO)[C@@H](O)[C@H](O)[C@H]1O |  | -0.807 | 3.14 |  |
| O=C(N[C@@H]1O[C@H](CO)[C@@H](O)[C@H](O)[C@H]1O)c1cccc2ccccc12 | 10 |  |  |  |
| CC(=O)N[C@@H]1O[C@H](CO)[C@@H](O)[C@H](O)[C@H]1O | 32 |  |  |  |
| O=C(N[C@@H]1O[C@H](CO)[C@@H](O)[C@H](O)[C@H]1O)[C@H](O)[C@@H](O)[C@H](O)[C@H](O)CO | 341 |  |  |  |
| CC(C)(C)c1ccc(C(=O)NC(=O)N[C@@H]2O[C@H](CO)[C@@H](O)[C@H](O)[C@H]2O)cc1 | 0.7 |  |  |  |
| O=C(NC1CC1)C(=O)N[C@@H]1O[C@H](CO)[C@@H](O)[C@H](O)[C@H]1O | 1410 |  |  |  |
| Cc1ccccc1[C@H](Cc1ccco1)C(=O)N[C@@H]1O[C@H](CO)[C@@H](O)[C@H](O)[C@H]1O |  | 0.004 | 12.2 |  |
| O=C(N[C@@H]1O[C@H](CO)[C@@H](O)[C@H](O)[C@H]1O)C(c1ccccc1)c1ccccc1 |  |  |  | Not Active |
| N[C@@H](Cc1c[nH]c2ccccc12)C(=O)N[C@@H]1O[C@H](CO)[C@@H](O)[C@H](O)[C@H]1O |  | -2.1 | 0.4 |  |
| O=C(Nc1ccccc1)N[C@@H]1O[C@H](CO)[C@@H](O)[C@H](O)[C@H]1O | 18 |  |  |  |
| Cc1ccc2c(c1)C=C(C(=O)N[C@@H]1O[C@H](CO)[C@@H](O)[C@H](O)[C@H]1O)C(=O)C2 |  | -0.451 | 3.62 |  |
| O=C(C[C@H]1CC(=O)c2c(F)cc(F)cc21)N[C@@H]1O[C@H](CO)[C@@H](O)[C@H](O)[C@H]1O |  | -1.21 | 3.17 |  |

| SMILES | Ki ([1]; read-out: Ki) [µM] | logP [2] | Papp [3] [×10⁻⁶ cm/s] | Ki [1] |
| --- | --- | --- | --- | --- |
| COC(=O)CCCC(=O)N[C@@H]1O[C@H](CO)[C@@H](O)[C@H](O)[C@H]1O | 83 |  |  |  |
| CC(C)c1ccc(C[C@H](C)C(=O)N[C@@H]2O[C@H](CO)[C@@H](O)[C@H](O)[C@H]2O)cc1 | 75.3 | 0.01 | 7.67 |  |
| O=C(CCc1ncc(-c2ccccc2)o1)N[C@@H]1O[C@H](CO)[C@@H](O)[C@H](O)[C@H]1O |  | -0.915 | 3.65 |  |
| CC(C)N(C(=O)C(=O)N[C@@H]1O[C@H](CO)[C@@H](O)[C@H](O)[C@H]1O)C(C)C |  |  |  | Not Active |
| O=C(N[C@@H]1O[C@H](CO)[C@@H](O)[C@H](O)[C@H]1O)c1ccccc1 | 81 |  |  |  |
| O=C(O)C(=O)N[C@@H]1O[C@H](CO)[C@@H](O)[C@H](O)[C@H]1O | 710 |  |  |  |
| CC(C)(C(=O)N[C@@H]1O[C@H](CO)[C@@H](O)[C@H](O)[C@H]1O)c1cccc2ccccc12 |  | 0.085 | 14.7 |  |
| CCc1ccc([C@H](C)CC(=O)N[C@@H]2O[C@H](CO)[C@@H](O)[C@H](O)[C@H]2O)cc1 | 377 | -0.162 | 8.9 |  |
| O=C(Cn1cc(-c2ccccc2)nn1)N[C@@H]1O[C@H](CO)[C@@H](O)[C@H](O)[C@H]1O | 180 |  |  |  |
| COC(=O)c1ccc(/C=C/C(=O)N[C@@H]2O[C@H](CO)[C@@H](O)[C@H](O)[C@H]2O)cc1 |  | -0.805 | 2.63 |  |
| COC(=O)CCC(=O)N[C@@H]1O[C@H](CO)[C@@H](O)[C@H](O)[C@H]1O | 170 |  |  |  |
| COC(=O)c1cccc(C(=O)N[C@@H]2O[C@H](CO)[C@@H](O)[C@H](O)[C@H]2O)c1 | 580 |  |  |  |
| O=C(CCc1ccccc1)N[C@@H]1O[C@H](CO)[C@@H](O)[C@H](O)[C@H]1O | 85 |  |  |  |
| C[C@@H](Cc1ccc(C(C)(C)C)cc1)C(=O)N[C@@H]1O[C@H](CO)[C@@H](O)[C@H](O)[C@H]1O |  | 0.379 | 10 |  |
| CC[C@H](CC(=O)N[C@@H]1O[C@H](CO)[C@@H](O)[C@H](O)[C@H]1O)c1ccc(C)c(C)c1 |  | 0.01 | 7.67 |  |
| COC(=O)C(=O)N[C@@H]1O[C@H](CO)[C@@H](O)[C@H](O)[C@H]1O | 210 |  |  |  |
| O=C(NC(=O)c1cc2ccccc2[nH]1)N[C@@H]1O[C@H](CO)[C@@H](O)[C@H](O)[C@H]1O | 4 |  |  |  |
| C[C@H](CC(=O)N[C@@H]1O[C@H](CO)[C@@H](O)[C@H](O)[C@H]1O)c1ccc(C(C)(C)C)cc1 |  | 0.33 | 9.77 |  |
